From US6514961B1, “Azetidinecarboxamide derivatives for the treatment of CNS disorders” (Vernalis Research Limited, priority 1998, dated 2003)

Legend:
[1] = tested on: anxiety (elevated zero-maze); test: Elevated zero-maze model of anxiolytic activity; assay type: in vivo, rats; settings: dose of 30 mg/Kg, orally 1 hour prior to zero-maze testing
From the text: Measurement of Anxiolytic Activity in Mice Using the Elevated Zero-maze Model
The elevated “zero-maze” is a modification of the elevated plus-maze model of anxiety which incorporates both traditional and novel ethological measures in the analysis of drug effects (Shepherd, J. K., Grewal, S. S., Fletcher, A., Bill, D. J. and Dourish, C. T., Behavioural and pharmacological characterisation of the elevated “zero-maze” as an animal model of anxiety. Psychopharmacology, 1994, 116, 56-64).
Male Sprague-Dawley rats (Charles River) weighing 300-450 gm are used. Animals are group-housed (5 per cage; cage size: 40×40×20 cm) in a temperature-controlled environment (20±2° C.), under a 12 h light-dark cycle (lights on: 08:00 hours). Food and water are made freely available. Four hours prior to testing, animals are transferred to clean cages and moved to the testing room in order to habituate to the testing environment.
The maze is comprised of a black Perspex annular platform (105 cm diameter, 10 cm width) elevated to 65 cm above ground level, divided equally into four quadrants. […]
Rats are placed on a closed quadrant and a 5 min test period is recorded on video-tape. […] Animals are scored as being in the open area when all four paws were in an open quadrant, and in the closed area only when all four paws passed over the open/closed divide. […]

Solubility measurement = assay type: physicochemical
3-MPA-induced seizures = test: Antagonism of 3-MPA-induced seizures; assay type: in vivo; settings: male T/O mice; test drug 30 ng/kg p.o. 60 min before i.v. bolus of 3-MPA; dose of 3-MPA required to evoke a seizure response
Experimental: Antagonism of 3-MPA-Induced Seizures
Several animal seizure models are available for the screening and characterisation of anticonvulsant (antiepileptic) drugs. Most models employ a chemical convulsant to induce seizures and the anticonvulsant potencies of novel compounds are measured in terms of their ability to increase the dose of convulsant required to induce a seizure response (or to prolong the latency to seizure onset following a bolus dose of the convulsant). Most chemical convulsants work by blocking the neurotransmitter function of gamma-aminobutyric acid (GABA), the predominant inhibitory neurotransmitter in the mammalian brain. This can be achieved by blocking the postsynaptic action of GABA using pentylenetetrazol or bicuculline, or via a presynaptic action using a GABA synthesis inhibitor to decrease GABA release into the synapse. In this case, the inhibitor of glutamate decarboxylase (GAD), 3-mercaptopropionic acid (3-MPA), was used as the convulsant challenge agent.
Male albino T/O strain mice (obtained from Tuck) weighing 28-40 g were used in these studies. Animals were assigned randomly to treatment groups and vehicle or test drug (at a dose of […]) were administered p.o. to groups of 12 animals 60 min before the administration of a bolus dose of 3-MPA intravenously. Immediately following 3-MPA administration, each mouse was placed individually into a cage for observation. The seizure response of each animal was scored quantally as present or absent (response or non-response) during the 5 min period immediately following 3-MPA administration. A seizure response was defined as the onset of the initial clonic phase of the seizure (abrupt loss of righting reflex accompanied by vocalisation). The seizure threshold (in terms of mg/kg i.v. of 3-MPA required to evoke a seizure response) was determined in each treatment group by a sequential up/down method followed by modified probit analysis of the quantal data A range of doses of 3-MPA was prepared (12.5-200.0 mg/kg i.v.) increasing by a constant geometric factor […], which was found in pilot studies to generate suitable data for analysis by this method.
In these studies, 3-MPA was obtained from Sigma
Test compounds were prepared as solutions dissolved in 45% w/v aqueous 2-hydroxypropyl-β-cyclodextrin. 3-MPA was dissolved in isotonic saline and its pH adjusted to 6 using 1M sodium hydroxide solution. Drugs were administered in a dose volume of 10 ml/kg body weight.

Row | Structure (SMILES) | Aqueous solubility at 1 mg/ml (Solubility measurement) | SC = seizure threshold after treatment with test drug (3-MPA-induced seizures) | other results
1 | C[C@@H](O)CNC(=O)N1CC(Oc2ccc(Cl)cc2)C1 (racemic) [Example 7, (R,S)-3-(4-Chlorophenoxy)-N-(2-hydroxypropyl)azetidine-1-carboximide] |  |  | anxiolytic activity (increase in the frequency of head dips) [1]: effective
2 | C=CCNC(=O)N1CC(Oc2ccc(C(F)(F)F)cc2)C1 [3-(4-(trifluoromethyl)phenoxy)-N-(2-propenyl)azetidine-1-carboxamide] | Not soluble |  | 
3 | CCCNC(=O)N1CC(Oc2ccc(Cl)cc2)C1 [3-(4-chlorophenoxy)-N-(propyl)azetidine-1-carboxamide] | Not soluble |  | 
4 | NC(=O)N1CC(Oc2ccc(Cl)cc2)C1 [3-(4-chlorophenoxy)azetidine-1-carboxamide] | Not soluble |  | 
5 | C[C@@H](O)CNC(=O)N1CC(Oc2ccc(C(C)(C)C)cc2)C1 [Example 1, (R)-3-(4-tert-Butylphenoxy)-N-(2-hydroxypropyl)azetidine-1-carboxamide] |  | 154.3 mg/kg i.v. | melting point: 98 to 99 °C
6 | C[C@@H](O)CNC(=O)N1CC(Oc2ccc(Cl)cc2)C1 [Example 2, (R)-3-(4-Chlorophenoxy)-N-(2-hydroxypropyl)azetidine-1-carboxamide] | Soluble | 109.1 mg/kg i.v. | 
7 | C[C@H](O)CNC(=O)N1CC(Oc2ccc(Cl)cc2)C1 [Example 3, (S)-3-(4-Chlorophenoxy)-N-(2-hydroxypropyl)azetidine-1-carboxamide] |  | 59.5 mg/kg i.v. | 
8 | CC(C)(O)CNC(=O)N1CC(Oc2ccc(Cl)cc2)C1 [Example 4, 3-(4-Chlorophenoxy)-N-(2-hydroxy-2-methylpropyl)azetidine-1-carboxamide] |  | 36.9 mg/kg i.v. | 
9 | C[C@@H](O)CNC(=O)N1CC(Oc2ccc(F)cc2)C1 [Example 5, (R)-3-(4-Fluorophenoxy)-N-(2-hydroxypropyl)azetidine-1-carboxamide] |  | 29.8 mg/kg i.v. | melting point: 112 to 114 °C
10 | C[C@@H](O)CNC(=O)N1CC(Oc2ccc(Cl)c(Cl)c2)C1 [Example 6, (R)-3-(3,4-Dichlorophenoxy)-N-(2-hydroxypropyl)azetidine-1-carboxamide] |  | 59.5 mg/kg i.v. | 
11 | C[C@@H](O)CNC(=O)N1CC(Oc2ccc(C(F)(F)F)cc2)C1 [Example 8] | Soluble | 214.1 mg/kg i.v. | 
